In US9487501B2, “Pyrazole carboxamide compounds and uses thereof” (Hoffmann-La Roche Inc., priority 2012, dated 2016) one finds Ki data, which are given here for 31 compounds.

For experiment [1], the target named is rat TAAR1 (Rattus norvegicus (Rat), UniProt Q923Y9). Nature of the experiment: Radioligand binding assay on rat TAAR1.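 Note: stably transfected HEK293 cell membranes with a tritiated radioligand, 1 h incubation at 4 °C, nonspecific binding taken as binding with 10 µM unlabeled ligand.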
Protocol: (§1) For the generation of stably transfected cell lines HEK293 cells were transfected with the pIRESneo2 expression plasmids containing the TAAR coding sequences (described above) with Lipofectamine 2000 (Invitrogen) according to the instructions of the manufacturer, and 24 hrs post transfection the culture medium was supplemented with 1 mg/ml G418 (Sigma, Buchs, Switzerland). […] Radioligand Binding Assay on Rat TAAR1 Membrane Preparation and Radioligand Binding. […] Cells were released from culture flasks using trypsin/EDTA, harvested, washed twice with ice-cold PBS (without Ca^2+ and Mg^2+), pelleted at 1,000 rpm for 5 min at 4° C., frozen and stored at −80° C. Frozen pellets were suspended in 20 ml HEPES-NaOH (20 mM, pH 7.4) containing 10 mM EDTA and homogenized with a Polytron (PT 6000, Kinematica) at 14,000 rpm for 20 s. The homogenate was centrifuged at 48,000×g for 30 min at 4° C. Subsequently, the supernatant was removed and discarded, and the pellet resuspended in 20 ml HEPES-NaOH (20 mM, pH 7.4) containing 0.1 mM EDTA using the Polytron (20 s at 14,000 rpm). This procedure was repeated and the final pellet resuspended in HEPES-NaOH containing 0.1 mM EDTA and homogenized using the Polytron. Typically, aliquots of 2 ml membrane portions were stored at −80° C. With each new membrane batch the dissociation constant (Kd) was determined via a saturation curve. […] Nonspecific binding was defined as the amount of ^3[H]-(S)-4-[(ethyl-phenyl-amino)-methyl]-4,5-dihydro-oxazol-2-ylamine bound in the presence of 10 μM unlabeled ligand. All compounds were tested at a broad range of concentrations (10 pM to 10 μM) in duplicates. […] The 96 deep well plates were incubated for 1 hr at 4° C. Incubations were terminated by rapid filtration through Unifilter-96 plates (Packard Instrument Company) and glass filters GF/C (Perkin Elmer) presoaked for 1 hr in polyethylenimine (0.3%) and washed 3 times with 1 ml of cold binding buffer. After addition of 45 μl of Microscint 40 (PerkinElmer) the Unifilter-96 plate was sealed and after 1 hr the radioactivity counted using a TopCount Microplate Scintillation Counter (Packard Instrument Company). Radioligand Binding Assay on Mouse TAAR1 Membrane Preparation and Radioligand Binding. […] Cells were released from culture flasks using trypsin/EDTA, harvested, washed twice with ice-cold PBS (without Ca^2+ and Mg^2+), pelleted at 1,000 rpm for 5 min at 4° C., frozen and stored at −80° C. Frozen pellets were suspended in 20 ml HEPES-NaOH (20 mM, pH 7.4) containing 10 mM EDTA and homogenized with a Polytron (PT 6000, Kinematica) at 14,000 rpm for 20 s. The homogenate was centrifuged at 48,000×g for 30 min at 4° C. Subsequently, the supernatant was removed and discarded, and the pellet resuspended in 20 ml HEPES-NaOH (20 mM, pH 7.4) containing 0.1 mM EDTA using the Polytron (20 s at 14,000 rpm). This procedure was repeated and the final pellet resuspended in HEPES-NaOH containing 0.1 mM EDTA and homogenized using the Polytron. Typically, aliquots of 2 ml membrane portions were stored at −80° C. With each new membrane batch the dissociation constant (Kd) was determined via a saturation curve.
Experiment [2] deals with mouse TAAR1 (Mus musculus (Mouse), UniProt Q923Y8). Put plainly: Radioligand binding assay on mouse TAAR1.
Protocol: as §1
Where [3] appears, read: read-out: Ki (μM) rat, rat TAAR1, membranes of HEK-293 cells, radioligand displacement.
The mark [4] stands for this setting: read-out: Ki (μM) mouse, mouse TAAR1, membranes of HEK-293 cells, radioligand displacement.

Structures can show the parent of a compound that is named as a salt. Where two headings read alike, the source gives them in different places.

mouse TAAR1, sequence (Q923Y8 whole entry): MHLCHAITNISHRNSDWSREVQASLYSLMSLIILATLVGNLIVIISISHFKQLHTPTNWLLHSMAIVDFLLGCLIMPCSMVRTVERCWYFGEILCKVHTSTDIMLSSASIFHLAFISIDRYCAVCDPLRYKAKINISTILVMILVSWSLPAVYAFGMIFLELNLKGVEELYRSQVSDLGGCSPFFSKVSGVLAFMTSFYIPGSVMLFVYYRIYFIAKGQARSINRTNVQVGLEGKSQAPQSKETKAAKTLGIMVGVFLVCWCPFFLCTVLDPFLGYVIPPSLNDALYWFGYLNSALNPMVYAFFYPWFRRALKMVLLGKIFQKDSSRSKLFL
rat TAAR1, sequence (Q923Y9 whole entry): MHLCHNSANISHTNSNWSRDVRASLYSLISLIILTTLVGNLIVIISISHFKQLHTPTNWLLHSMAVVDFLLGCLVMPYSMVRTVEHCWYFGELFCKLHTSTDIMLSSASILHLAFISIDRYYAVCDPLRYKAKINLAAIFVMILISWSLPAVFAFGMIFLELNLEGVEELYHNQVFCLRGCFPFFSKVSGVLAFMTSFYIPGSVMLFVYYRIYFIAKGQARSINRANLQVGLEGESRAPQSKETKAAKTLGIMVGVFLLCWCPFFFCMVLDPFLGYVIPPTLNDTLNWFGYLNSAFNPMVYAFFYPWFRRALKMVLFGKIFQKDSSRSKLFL

Consider `O=C(Nc1ccc(C2CCNC2)cc1)c1cnn(-c2ccc(OC(F)F)cc2)c1` (racemic) [Example 54, (RS)-1-(4-difluoromethoxy-phenyl)-1H-pyrazole-4-carboxylic acid (4-pyrrolidin-3-yl-phenyl)-amide], for which the values for the Ki in experiment [1] and in experiment [2] were 0.0011 µM and 0.0016 µM, respectively.

Take `O=C(Nc1ccc(C2CCCNC2)cc1)c1cnn(-c2ccc(OC(F)F)cc2)c1` (racemic) [Example 55, (RS)-1-(4-difluoromethoxy-phenyl)-1H-pyrazole-4-carboxylic acid (4-piperidin-3-yl-phenyl)-amide hydrochloride]: the figures for the Ki in experiment [1] and in experiment [2] were 0.003 µM and 0.002 µM, respectively.

With `Cc1c(C(=O)Nc2ccc([C@H]3CNCCO3)cc2)cnn1-c1ccccc1` [Example 1, (S)-5-methyl-N-(4-(morpholin-2-yl)phenyl)-1-phenyl-1H-pyrazole-4-carboxamide hydrochloride], the inhibitory constant (Ki) in experiment [1] (setting [3]) turned out to be 0.229 µM; in experiment [2] (setting [4]), 0.0086 µM.

Consider `Nc1c(C(=O)Nc2ccc([C@H]3CNCCO3)cc2)cnn1-c1ccc(F)cc1` [Example 2, (S)-5-amino-1-(4-fluorophenyl)-N-(4-(morpholin-2-yl)phenyl)-1H-pyrazole-4-carboxamide dihydrochloride], for which the inhibition constant (Ki) in experiment [1] (setting [3]) came to 0.401 µM; in experiment [2] (setting [4]), 0.0144 µM.

With `COc1ccc(-n2cc(C(=O)Nc3ccc([C@H]4CNCCO4)cc3)cn2)cc1` [Example 3, (S)-1-(4-methoxyphenyl)-N-(4-(morpholin-2-yl)phenyl)-1H-pyrazole-4-carboxamide hydrochloride], the Ki in experiment [1] (setting [3]) turned out to be 0.0165 µM; in experiment [2] (setting [4]), 0.0025 µM.

With `O=C(Nc1ccc([C@H]2CNCCO2)cc1)c1cnn(-c2ccc(F)cc2)c1` [Example 4, (S)-1-(4-fluorophenyl)-N-(4-(morpholin-2-yl)phenyl)-1H-pyrazole-4-carboxamide hydrochloride], the values for the Ki in experiment [1] (setting [3]) and in experiment [2] (setting [4]) were 0.0033 µM and 0.0007 µM, respectively.

For `O=C(Nc1ccc([C@H]2CNCCO2)cc1)c1cnn(-c2cccc(F)c2)c1` [Example 5, (S)-1-(3-fluorophenyl)-N-(4-(morpholin-2-yl)phenyl)-1H-pyrazole-4-carboxamide hydrochloride], the Ki in experiment [1] (setting [3]) is 0.0039 µM; in experiment [2] (setting [4]), 0.0015 µM.

For the compound `N#Cc1ccc(-n2cc(C(=O)Nc3ccc([C@H]4CNCCO4)cc3)cn2)cc1` [Example 6, (S)-1-(4-cyanophenyl)-N-(4-(morpholin-2-yl)phenyl)-1H-pyrazole-4-carboxamide hydrochloride], the Ki in experiment [1] (setting [3]) was found to be 0.007 µM; in experiment [2] (setting [4]), 0.0028 µM.

As to `O=C(Nc1ccc([C@H]2CNCCO2)cc1)c1cnn(-c2ccc(Cl)cn2)c1` [Example 7, (S)-1-(5-chloropyridin-2-yl)-N-(4-(morpholin-2-yl)phenyl)-1H-pyrazole-4-carboxamide hydrochloride], the Ki stood at 0.0046 µM in experiment [1] (setting [3]) and 0.0016 µM in experiment [2] (setting [4]).

Take `N#Cc1ccc(-n2cc(C(=O)Nc3ccc([C@H]4CNCCO4)cc3)cn2)nc1` [Example 8, (S)-1-(5-cyanopyridin-2-yl)-N-(4-(morpholin-2-yl)phenyl)-1H-pyrazole-4-carboxamide hydrochloride]: the inhibition constant (Ki) amounted to 0.0147 µM in experiment [1] (setting [3]) and 0.0089 µM in experiment [2] (setting [4]).

For `O=C(Nc1ccc([C@H]2CNCCO2)cc1)c1cnn(-c2ccc(Br)cn2)c1` [Example 9, (S)-1-(5-bromopyridin-2-yl)-N-(4-(morpholin-2-yl)phenyl)-1H-pyrazole-4-carboxamide hydrochloride], the inhibition constant (Ki) in experiment [1] (setting [3]) is 0.0043 µM; in experiment [2] (setting [4]), 0.0017 µM.

On to `O=C(Nc1ccc([C@H]2CNCCO2)cc1)c1cnn(-c2ccc(I)cn2)c1` [Example 10, (S)-1-(5-iodopyridin-2-yl)-N-(4-(morpholin-2-yl)phenyl)-1H-pyrazole-4-carboxamide hydrochloride], for which the Ki in experiment [1] (setting [3]) is 0.0041 µM; in experiment [2] (setting [4]), 0.0012 µM.

In the case of `O=C(Nc1ccc([C@H]2CNCCO2)cc1)c1cnn(-c2ccc(C(F)(F)F)cn2)c1` [Example 11, (S)—N-(4-(morpholin-2-yl)phenyl)-1-(5-(trifluoromethyl)pyridin-2-yl)-1H-pyrazole-4-carboxamide hydrochloride], the inhibition constant (Ki) in experiment [1] (setting [3]) and in experiment [2] (setting [4]) was 0.0023 µM throughout.

With `O=C(Nc1ccc([C@@H]2CNCCO2)cc1)c1cnn(-c2ccc(F)cc2)c1` [Example 12, (R)-1-(4-fluorophenyl)-N-(4-(morpholin-2-yl)phenyl)-1H-pyrazole-4-carboxamide hydrochloride], the figures for the Ki in experiment [1] (setting [3]) and in experiment [2] (setting [4]) were 0.0011 µM and 0.0012 µM, respectively.

Regarding `N#Cc1cccc(-n2cc(C(=O)Nc3ccc([C@H]4CNCCO4)cc3)cn2)c1` [Example 13, (S)-1-(3-cyanophenyl)-N-(4-(morpholin-2-yl)phenyl)-1H-pyrazole-4-carboxamide hydrochloride], the Ki amounted to 0.0072 µM in experiment [1] (setting [3]) and 0.0023 µM in experiment [2] (setting [4]).

Consider `O=C(Nc1ccc([C@H]2CNCCO2)cc1)c1cnn(-c2cc(C(F)(F)F)ccn2)c1` [Example 14, (S)—N-(4-(morpholin-2-yl)phenyl)-1-(4-(trifluoromethyl)pyridin-2-yl)-1H-pyrazole-4-carboxamide hydrochloride], for which the inhibitory constant (Ki) in experiment [1] (setting [3]) turned out to be 0.0019 µM; in experiment [2] (setting [4]), 0.0013 µM.

With `O=C(Nc1ccc([C@H]2CNCCO2)cc1)c1cnn(-c2cc(Cl)ccn2)c1` [Example 15, (S)-1-(4-chloropyridin-2-yl)-N-(4-(morpholin-2-yl)phenyl)-1H-pyrazole-4-carboxamide hydrochloride], the inhibition constant Ki in experiment [1] (setting [3]) worked out at 0.0036 µM; in experiment [2] (setting [4]), 0.0016 µM.

`O=C(Nc1ccc([C@H]2CNCCO2)cc1)c1cnn(-c2ccnc(Br)c2)c1` [Example 16, (S)-1-(2-bromopyridin-4-yl)-N-(4-(morpholin-2-yl)phenyl)-1H-pyrazole-4-carboxamide hydrochloride]: the Ki in experiment [1] (setting [3]) worked out at 0.0029 µM; in experiment [2] (setting [4]), 0.0035 µM.

As for `N#Cc1cc(Br)ccc1-n1cc(C(=O)Nc2ccc([C@H]3CNCCO3)cc2)cn1` [Example 17, (S)-1-(4-bromo-2-cyanophenyl)-N-(4-(morpholin-2-yl)phenyl)-1H-pyrazole-4-carboxamide hydrochloride], the inhibition constant Ki is 0.0015 µM in experiment [1] (setting [3]) and 0.0021 µM in experiment [2] (setting [4]).

With `COc1cccc(-n2cc(C(=O)Nc3ccc([C@H]4CNCCO4)cc3)cn2)n1` [Example 18, (S)-1-(6-methoxypyridin-2-yl)-N-(4-(morpholin-2-yl)phenyl)-1H-pyrazole-4-carboxamide hydrochloride], the inhibition constant (Ki) in experiment [1] (setting [3]) stood at 0.0029 µM; in experiment [2] (setting [4]), 0.001 µM.

Turning to `O=C(Nc1ccc([C@H]2CNCCO2)cc1)c1cnn(-c2ncc(C(F)(F)F)cc2F)c1` [Example 19, (S)-1-(3-fluoro-5-(trifluoromethyl)pyridin-2-yl)-N-(4-(morpholin-2-yl)phenyl)-1H-pyrazole-4-carboxamide hydrochloride], the Ki in experiment [1] (setting [3]) was found to be 0.016 µM; in experiment [2] (setting [4]) it was 0.0135 µM.

Take `O=C(Nc1ccc([C@H]2CNCCO2)cc1)c1cnn(-c2ccnc(Cl)c2)c1` [Example 20, (S)-1-(2-chloropyridin-4-yl)-N-(4-(morpholin-2-yl)phenyl)-1H-pyrazole-4-carboxamide hydrochloride]: the figures for the inhibition constant (Ki) in experiment [1] (setting [3]) and in experiment [2] (setting [4]) were 0.0059 µM and 0.0041 µM, respectively.

Turning to `O=C(Nc1ccc([C@H]2CNCCO2)cc1)c1cnn(-c2ccc(OC(F)F)cc2)c1` [Example 21, (S)-1-(4-(difluoromethoxy)phenyl)-N-(4-(morpholin-2-yl)phenyl)-1H-pyrazole-4-carboxamide hydrochloride], the inhibition constant (Ki) in experiment [1] (setting [3]) was 0.004 µM; in experiment [2] (setting [4]) it was 0.0017 µM.

Turning to `O=C(Nc1ccc([C@H]2CNCCO2)cc1)c1cnn(-c2cccc(OC(F)F)c2)c1` [Example 22, (S)-1-(3-(difluoromethoxy)phenyl)-N-(4-(morpholin-2-yl)phenyl)-1H-pyrazole-4-carboxamide hydrochloride], the inhibition constant (Ki) in experiment [1] (setting [3]) turned out to be 0.0014 µM; in experiment [2] (setting [4]) it was 0.001 µM.

On to `N#Cc1ccc(-n2cc(C(=O)Nc3ccc([C@H]4CNCCO4)cc3)cn2)c(F)c1` [Example 23, (S)-1-(4-cyano-2-fluorophenyl)-N-(4-(morpholin-2-yl)phenyl)-1H-pyrazole-4-carboxamide hydrochloride], for which the inhibition constant (Ki) turned out to be 0.007 µM in experiment [1] (setting [3]) and 0.0041 µM in experiment [2] (setting [4]).

On to `N#Cc1ccc(-n2cc(C(=O)Nc3ccc([C@H]4CNCCO4)cc3)cn2)cc1F` [Example 24, (S)-1-(4-cyano-3-fluorophenyl)-N-(4-(morpholin-2-yl)phenyl)-1H-pyrazole-4-carboxamide hydrochloride], for which the Ki in experiment [1] (setting [3]) was determined as 0.0154 µM; in experiment [2] (setting [4]), 0.0175 µM.

In the case of `N#Cc1cc(F)ccc1-n1cc(C(=O)Nc2ccc([C@H]3CNCCO3)cc2)cn1` [Example 25, (S)-1-(2-cyano-4-fluorophenyl)-N-(4-(morpholin-2-yl)phenyl)-1H-pyrazole-4-carboxamide hydrochloride], the inhibitory constant (Ki) was 0.0078 µM in experiment [1] (setting [3]) and 0.0082 µM in experiment [2] (setting [4]).

For `O=C(Nc1ccc([C@H]2CNCCO2)cc1)c1cnn(-c2ccc(OC(F)(F)F)cc2)c1` [Example 26, (S)—N-(4-(morpholin-2-yl)phenyl)-1-(4-(trifluoromethoxy)phenyl)-1H-pyrazole-4-carboxamide hydrochloride], the values for the Ki in experiment [1] (setting [3]) and in experiment [2] (setting [4]) were 0.0005 µM and 0.0007 µM, respectively.

Turning to `O=C(Nc1ccc([C@@H]2CNCCO2)cc1)c1cnn(-c2ccc(OC(F)F)cc2)c1` [Example 27, (R)-1-(4-(difluoromethoxy)phenyl)-N-(4-(morpholin-2-yl)phenyl)-1H-pyrazole-4-carboxamide hydrochloride], the results for the Ki in experiment [1] (setting [3]) and in experiment [2] (setting [4]) were 0.001 µM and 0.0013 µM, respectively.

As to `CCOc1cccc(-n2cc(C(=O)Nc3ccc([C@H]4CNCCO4)cc3)cn2)n1` [Example 28, (S)-1-(6-ethoxypyridin-2-yl)-N-(4-(morpholin-2-yl)phenyl)-1H-pyrazole-4-carboxamide hydrochloride], the Ki in experiment [1] (setting [3]) is 0.0022 µM; in experiment [2] (setting [4]), 0.0008 µM.

Consider `O=C(Nc1ccc([C@H]2CNCCO2)cc1)c1cnn(-c2ccc3c(c2)OC(F)(F)O3)c1` [Example 29, (S)-1-(2,2-difluorobenzo[d][1,3]dioxol-5-yl)-N-(4-(morpholin-2-yl)phenyl)-1H-pyrazole-4-carboxamide hydrochloride], for which the inhibition constant Ki in experiment [1] (setting [3]) worked out at 0.0014 µM; in experiment [2] (setting [4]), 0.0023 µM.

A word on the Ki: it is a measure of affinity in units of concentration, obtained from inhibition or displacement.
